Results taken from BindingDB's records for doi:10.1002/cbic.200900750 (University of Toronto, 2010).

Biological target: T1, Alpha-mannosidase 2 (Drosophila melanogaster, UniProt Q24451)
T1 sequence (Q24451 whole entry): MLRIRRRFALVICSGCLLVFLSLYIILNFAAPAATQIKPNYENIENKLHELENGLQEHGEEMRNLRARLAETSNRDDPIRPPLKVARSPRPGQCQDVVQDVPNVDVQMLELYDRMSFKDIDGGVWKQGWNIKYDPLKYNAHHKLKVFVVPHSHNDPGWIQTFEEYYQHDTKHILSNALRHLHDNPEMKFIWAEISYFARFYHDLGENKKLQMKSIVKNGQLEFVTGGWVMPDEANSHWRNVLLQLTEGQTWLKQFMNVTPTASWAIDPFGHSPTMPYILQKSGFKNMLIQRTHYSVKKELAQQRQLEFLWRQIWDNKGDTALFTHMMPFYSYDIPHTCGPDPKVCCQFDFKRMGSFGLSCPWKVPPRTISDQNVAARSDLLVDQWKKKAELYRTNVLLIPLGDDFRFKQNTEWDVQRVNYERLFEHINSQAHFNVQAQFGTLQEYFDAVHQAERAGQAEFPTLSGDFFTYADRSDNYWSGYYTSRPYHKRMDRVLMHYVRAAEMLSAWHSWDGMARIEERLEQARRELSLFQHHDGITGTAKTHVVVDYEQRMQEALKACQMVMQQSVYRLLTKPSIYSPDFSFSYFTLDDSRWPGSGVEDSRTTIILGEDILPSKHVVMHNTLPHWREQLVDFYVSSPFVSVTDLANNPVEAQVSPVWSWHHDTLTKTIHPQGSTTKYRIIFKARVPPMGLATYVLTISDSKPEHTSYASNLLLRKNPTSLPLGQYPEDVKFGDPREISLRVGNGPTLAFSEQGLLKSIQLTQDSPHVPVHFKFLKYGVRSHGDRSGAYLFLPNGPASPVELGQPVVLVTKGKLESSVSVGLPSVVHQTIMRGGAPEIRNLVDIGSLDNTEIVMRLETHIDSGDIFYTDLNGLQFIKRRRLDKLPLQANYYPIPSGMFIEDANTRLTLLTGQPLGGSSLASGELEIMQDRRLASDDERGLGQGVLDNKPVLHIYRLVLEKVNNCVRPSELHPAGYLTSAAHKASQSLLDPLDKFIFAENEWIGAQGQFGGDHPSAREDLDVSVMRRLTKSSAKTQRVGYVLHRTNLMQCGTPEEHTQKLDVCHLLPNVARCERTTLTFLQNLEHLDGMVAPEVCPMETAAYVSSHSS
Assay: Inhibition Assay
Settings: pH 5.75; 25 °C

| SMILES | IC50 | Ki |
| --- | --- | --- |
| CC(C)(C)c1ccc(C(=O)C[C@H]2CC[C@@H](O)C3[C@H](O)[C@H](O)CN32)cc1 (stereo not given in full) [Swainsonine derivative, 4] | 0.029 µM | – |
| O=C(C[C@H]1CC[C@@H](O)C2[C@H](O)[C@H](O)CN21)c1ccccc1 (stereo not given in full) [Swainsonine derivative, 2] | 0.03 µM | – |
| Cc1ccc(C(=O)C[C@H]2CC[C@@H](O)C3[C@H](O)[C@H](O)CN32)cc1 (stereo not given in full) [Swainsonine derivative, 3] | 0.029 µM | – |
| O[C@H]1[C@H]2[C@H](O)CCCN2C[C@H]1O [(-)-swainsonine] | 0.037 µM | 0.003 µM |
